# Measurements reported in paper PMC2787200 (Organic letters, 2008).
# Target: ERα (Homo sapiens, UniProt P03372)
# Assay: competitive radiometric binding assay with tritiated estradiol
# Sequence of ERα (P03372 whole entry): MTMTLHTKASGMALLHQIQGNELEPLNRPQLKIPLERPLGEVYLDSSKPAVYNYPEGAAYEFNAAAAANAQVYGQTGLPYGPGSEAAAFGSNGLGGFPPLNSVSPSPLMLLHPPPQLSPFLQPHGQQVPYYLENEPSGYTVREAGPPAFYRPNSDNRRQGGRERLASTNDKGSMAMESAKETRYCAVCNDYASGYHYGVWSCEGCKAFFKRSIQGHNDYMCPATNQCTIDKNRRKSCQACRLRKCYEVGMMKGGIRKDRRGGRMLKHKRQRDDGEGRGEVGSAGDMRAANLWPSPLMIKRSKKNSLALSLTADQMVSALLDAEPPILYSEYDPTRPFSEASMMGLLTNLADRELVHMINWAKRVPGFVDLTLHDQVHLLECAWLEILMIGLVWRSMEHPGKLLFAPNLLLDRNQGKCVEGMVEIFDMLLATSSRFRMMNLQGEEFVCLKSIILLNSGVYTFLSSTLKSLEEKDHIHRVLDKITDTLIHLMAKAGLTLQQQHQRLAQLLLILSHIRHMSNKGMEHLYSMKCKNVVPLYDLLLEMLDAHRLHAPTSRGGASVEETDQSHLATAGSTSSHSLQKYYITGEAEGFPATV
substance,measurement,value
Cyclofenil-conjugated SNAPFL [compound 2],Ki,~6 nM
